Laboratory results as given in patent US20200315176A1, “FUNGICIDAL COMPOSITIONS” (SYNGENTA PARTICIPATIONS AG, priority 2017, published 2020).

Experiments:
[1] = tested on: Puccinia recondita f. sp. tritici; test: Example A1: fungicidal activity against Puccinia recondita f. sp. tritici / wheat / leaf disc preventative (brown rust); format: in vivo; conditions: foliar, 200 ppm in the applied formulation, wheat leaf segments, compared to untreated, read-out: disease control
Description: (§1) Leaf disks or leaf segments of various plant species are cut from plants grown in a greenhouse. The cut leaf disks or segments are placed in multiwell plates (24-well format) onto water agar. The leaf disks are sprayed with a test solution before (preventative) or after (curative) inoculation. Compounds to be tested are prepared as DMSO solutions (max. 10 mg/mL) which are diluted to the appropriate concentration with 0.025% Tween20 just before spraying. The inoculated leaf disks or segments are incubated under defined conditions (temperature, relative humidity, light, etc.) according to the respective test system. A single evaluation of disease level is carried out 3 to 14 days after inoculation, depending on the pathosystem. Percent disease control relative to the untreated check leaf disks or segments is then calculated.
Wheat leaf segments cv. Kanzler were placed on agar in multiwell plates (24-well format) and sprayed with the formulated test compound diluted in water. The leaf disks were inoculated with a spore suspension of the fungus 1 day after application. The inoculated leaf segments were incubated at 19° C. and 75% relative humidity (rh) under a light regime of 12 hours light/12 hours darkness in a climate cabinet and the activity of a compound was assessed as percent disease control compared to untreated when an appropriate level of disease damage appears in untreated check leaf segments (7 to 9 days after application).

[2] = tested on: Puccinia recondita f. sp. tritici; test: Example A2: fungicidal activity against Puccinia recondita f. sp. tritici / wheat / leaf disc curative (brown rust); format: in vivo; conditions: foliar, 24 h, 200 ppm in the applied formulation, curative (applied 1 day after inoculation), wheat leaf segments, read-out: disease control
Description: as §1
Wheat leaf segments cv. Kanzler are placed on agar in multiwell plates (24-well format). The leaf segments are then inoculated with a spore suspension of the fungus. Plates were stored in darkness at 19° C. and 75% relative humidity. The formulated test compound diluted in water was applied 1 day after inoculation. The leaf segments were incubated at 19° C. and 75% relative humidity under a light regime of 12 hours light/12 hours darkness in a climate cabinet and the activity of a compound was assessed as percent disease control compared to untreated when an appropriate level of disease damage appears in untreated check leaf segments (6 to 8 days after application).

Phakopsora pachrhizi = test: Example A3: fungicidal activity against Phakopsora pachrhizi / soybean / leaf disc preventative (Asian soybean rust); format: in vivo; conditions: Phakopsora pachyrhizi, foliar, 200 ppm in the applied formulation, soybean leaf disks, read-out: disease control
Description: as §1
Soybean leaf disks are placed on water agar in multiwell plates (24-well format) and sprayed with the formulated test compound diluted in water. One day after application leaf discs are inoculated by spraying a spore suspension on the lower leaf surface. After an incubation period in a climate cabinet of 24-36 hours in darkness at 20° C. and 75% rh leaf disc are kept at 20° C. with 12 h light/day and 75% rh. The activity of a compound is assessed as percent disease control compared to untreated when an appropriate level of disease damage appears in untreated check leaf disks (12 to 14 days after application).

[3] = tested on: Glomerella lagenarium (Colletotrichum lagenarium); test: Example A4: fungicidal activity against Glomerella lagenarium (Colletotrichum lagenarium) liquid culture / cucumber / preventative (anthracnose); format: cell-based; conditions: Colletotrichum orbiculare, 20 ppm in the applied formulation, growth measured photometrically 3 to 4 days after application, read-out: disease control
Description: Mycelia fragments or conidia suspensions of a fungus prepared either freshly from liquid cultures of the fungus or from cryogenic storage, are directly mixed into nutrient broth. DMSO solutions of the test compound (max. 10 mg/mL) are diluted with 0.025% Tween20 by a factor of 50 and 10 μL of this solution is pipetted into a microtiter plate (96-well format). The nutrient broth containing the fungal spores/mycelia fragments is then added to give an end concentration of the tested compound. The test plates are incubated in the dark at 24° C. and 96% relative humidity. The inhibition of fungal growth is determined photometrically after 2 to 7 days, depending on the pathosystem, and percent antifungal activity relative to the untreated check is calculated. Conidia of the fungus from cryogenic storage are directly mixed into nutrient broth (PDB—potato dextrose broth). After placing a (DMSO) solution of test compound into a microtiter plate (96-well format), the nutrient broth containing the fungal spores is added.

melting point [°C] | Compound | pest or weed control at 200 ppm [1] [%] | pest or weed control at 200 ppm [2] [%] | pest or weed control at 200 ppm (Phakopsora pachrhizi) [%] | inhibition of growth at 20 ppm [3] [%]
156 to 161 | CNC(=O)c1cnn(Cc2ccc(-c3noc(C(F)(F)F)n3)cc2)c1 [X.06, N-methyl-1-[[4-[5-(trifluoromethyl)-1,2,4-oxadiazol-3-yl]phenyl]methyl]pyrazole-4-carboxamide] | ≥ 80 | ≥ 80 | ≥ 80 | ≥ 80
131 to 135 | CCOC(=O)c1cnn(Cc2ccc(-c3noc(C(F)(F)F)n3)c(F)c2)c1 [X.13, ethyl 1-[[3-fluoro-4-[5-(trifluoromethyl)-1,2,4-oxadiazol-3-yl]phenyl]methyl]pyrazole-4-carboxylate] | ≥ 80 |  | ≥ 80 | ≥ 80
102 to 112 | CON(C)C(=O)c1cnn(Cc2ccc(-c3noc(C(F)(F)F)n3)cc2)c1 [X.15, N-methoxy-N-methyl-1-[[4-[5-(trifluoromethyl)-1,2,4-oxadiazol-3-yl]phenyl]methyl]pyrazole-4-carboxamide] | ≥ 80 | ≥ 80 | ≥ 80 | ≥ 80
105 to 115 | CCCOC(=O)c1cnn(Cc2ccc(-c3noc(C(F)(F)F)n3)cc2)c1 [X.16, propyl 1-[[4-[5-(trifluoromethyl)-1,2,4-oxadiazol-3-yl]phenyl]methyl]pyrazole-4-carboxylate] | ≥ 80 | ≥ 80 | ≥ 80 | ≥ 80
86 to 96 | CCN(CC)C(=O)c1cnn(Cc2ccc(-c3noc(C(F)(F)F)n3)cc2)c1 [X.14, N,N-diethyl-1-[[4-[5-(trifluoromethyl)-1,2,4-oxadiazol-3-yl]phenyl]methyl]pyrazole-4-carboxamide] | ≥ 80 | ≥ 80 | ≥ 80 | ≥ 80
166 to 176 | CCNC(=O)c1cnn(Cc2ccc(-c3noc(C(F)(F)F)n3)cc2)c1 [X.18, N-ethyl-1-[[4-[5-(trifluoromethyl)-1,2,4-oxadiazol-3-yl]phenyl]methyl]pyrazole-4-carboxamide] | ≥ 80 | ≥ 80 | ≥ 80 | ≥ 80
189 to 194 | O=C(NC1CC1)c1cnn(Cc2ccc(-c3noc(C(F)(F)F)n3)cc2)c1 [X.04, N-cyclopropyl-1-[[4-[5-(trifluoromethyl)-1,2,4-oxadiazol-3-yl]phenyl]methyl]pyrazole-4-carboxamide] | ≥ 80 | ≥ 80 | ≥ 80 | ≥ 80

Further lines, the compound ahead of its results:

Compound | melting point [°C] | pest or weed control at 200 ppm [1] [%] | pest or weed control at 200 ppm [2] [%] | pest or weed control at 200 ppm (Phakopsora pachrhizi) [%] | inhibition of growth at 20 ppm [3] [%]
CON=Cc1cnn(Cc2ccc(-c3noc(C(F)(F)F)n3)cc2)c1 [X.20, N-methoxy-1-[1-[[4-[5-(trifluoromethyl)-1,2,4-oxadiazol-3-yl]phenyl]methyl]pyrazol-4-yl]methanimine] |  | ≥ 80 | ≥ 80 | ≥ 80 | ≥ 80
CCOC(=O)c1cnn(Cc2ccc(-c3noc(C(F)(F)F)n3)cc2)c1 [X.03, ethyl 1-[[4-[5-(trifluoromethyl)-1,2,4-oxadiazol-3-yl]phenyl]methyl]pyrazole-4-carboxylate] |  | ≥ 80 | ≥ 80 | ≥ 80 | ≥ 80
FC(F)(F)c1nc(-c2ccc(Cn3nnc4ncccc43)cc2)no1 [X.09, 3-[4-(triazolo[4,5-b]pyridin-1-ylmethyl)phenyl]-5-(trifluoromethyl)-1,2,4-oxadiazole] |  | ≥ 80 | ≥ 80 | ≥ 80 | ≥ 80
COC(=O)c1cnn(Cc2ccc(-c3noc(C(F)(F)F)n3)cc2)c1 [X.12, methyl 1-[[4-[5-(trifluoromethyl)-1,2,4-oxadiazol-3-yl]phenyl]methyl]pyrazole-4-carboxylate] | 122 to 129 | ≥ 80 | ≥ 80 | ≥ 80 | ≥ 80
N#Cc1ncnn1Cc1ccc(-c2noc(C(F)(F)F)n2)cc1 [X.02, 2-[[4-[5-(trifluoromethyl)-1,2,4-oxadiazol-3-yl]phenyl]methyl]-1,2,4-triazole-3-carbonitrile] |  | ≥ 80 | ≥ 80 | ≥ 80 | ≥ 80
FC(F)(F)c1nc(-c2ccc(Cn3nnc4cccnc43)cc2)no1 [X.11, 3-[4-(triazolo[4,5-b]pyridin-3-ylmethyl)phenyl]-5-(trifluoromethyl)-1,2,4-oxadiazole] | 143 to 144 | ≥ 80 | ≥ 80 | ≥ 80 | ≥ 80
CCOC(=O)c1cnn(C(C)c2ccc(-c3noc(C(F)(F)F)n3)cc2)c1 (centres unmarked) [X.21, ethyl 1-[1-[4-[5-(trifluoromethyl)-1,2,4-oxadiazol-3-yl]phenyl]ethyl]pyrazole-4-carboxylate] |  | ≥ 80 | ≥ 80 | ≥ 80 | ≥ 80
NC(=O)c1cnn(Cc2ccc(-c3noc(C(F)(F)F)n3)cc2)c1 [X.19, 1-[[4-[5-(trifluoromethyl)-1,2,4-oxadiazol-3-yl]phenyl]methyl]pyrazole-4-carboxamide] |  | ≥ 80 | ≥ 80 | ≥ 80 | ≥ 80
FC(F)(F)c1nc(-c2ccc(Cn3nc4cccnc4n3)cc2)no1 [X.10, 3-[4-(triazolo[4,5-b]pyridin-2-ylmethyl)phenyl]-5-(trifluoromethyl)-1,2,4-oxadiazole] | 121 to 122 | ≥ 80 | ≥ 80 | ≥ 80 | ≥ 80
CCSc1ncnn1Cc1ccc(-c2noc(C(F)(F)F)n2)cc1 [X.08, 3-[4-[(5-ethylsulfanyl-1,2,4-triazol-1-yl)methyl]phenyl]-5-(trifluoromethyl)-1,2,4-oxadiazole] |  | ≥ 80 | ≥ 80 | ≥ 80 | ≥ 80
CN(C)C(=O)c1cnn(Cc2ccc(-c3noc(C(F)(F)F)n3)cc2)c1 [X.05, N,N-dimethyl-1-[[4-[5-(trifluoromethyl)-1,2,4-oxadiazol-3-yl]phenyl]methyl]pyrazole-4-carboxamide] | 124 to 129 | ≥ 80 | ≥ 80 | ≥ 80 | ≥ 80
CN(C)c1ncn(Cc2ccc(-c3noc(C(F)(F)F)n3)cc2)n1 [X.07, N,N-dimethyl-1-[[4-[5-(trifluoromethyl)-1,2,4-oxadiazol-3-yl]phenyl]methyl]-1,2,4-triazol-3-amine] |  | ≥ 80 | ≥ 80 | ≥ 80 | ≥ 80
